Data taken from publication PMC10508830 (Antiviral research, 2023).

Biological target: NA of clade 2.3.4.4b A(H5N1) viruses lacking the flagged NA substitutions (n = 15) (Influenza A virus, UniProt Q9Q0U7)
Type: biochemical
Details: read-out: Median IC50 A(H5N1)

Sequence of NA of clade 2.3.4.4b A(H5N1) viruses lacking the flagged NA substitutions (n = 15) (Q9Q0U7 whole entry, looked up): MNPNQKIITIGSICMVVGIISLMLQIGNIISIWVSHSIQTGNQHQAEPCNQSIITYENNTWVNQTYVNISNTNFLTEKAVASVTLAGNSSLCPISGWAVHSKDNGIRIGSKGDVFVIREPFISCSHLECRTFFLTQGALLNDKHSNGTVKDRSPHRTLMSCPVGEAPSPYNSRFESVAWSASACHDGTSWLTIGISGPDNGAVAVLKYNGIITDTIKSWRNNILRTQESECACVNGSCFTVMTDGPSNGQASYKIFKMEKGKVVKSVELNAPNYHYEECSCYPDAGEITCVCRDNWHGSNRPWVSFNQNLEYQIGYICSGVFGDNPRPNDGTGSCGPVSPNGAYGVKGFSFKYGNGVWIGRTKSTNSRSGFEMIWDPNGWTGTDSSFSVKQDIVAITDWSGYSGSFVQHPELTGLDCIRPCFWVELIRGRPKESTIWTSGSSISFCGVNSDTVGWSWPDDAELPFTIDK

In the case of peramivir, the IC50 is reported as 0.1 nM.
